Results as given in PubChem BioAssay AID256 (DTP/NCI, 2004).
“And” between values parts separate entries of the source, which are not always exact repeats. Equal values may be shown once. Toxic doses and inconclusive results are not listed. How the source made its calls: active means survival T/C of 150% or more; inactive means T/C below 125% in these data.

System: CD2F1 mice, L1210 leukemia ip, survival T/C
Assay: NCI In Vivo Anticancer Drug Screen. Data for tumor model L1210 Leukemia (intraperitoneal) in CD2F1 (CDF1) mice
Conditions: higher = longer survival
Outline: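 Tumor-bearing mice (transplanted tumor) were split into treated and vehicle control groups, and the measured endpoint of each treated group was divided by that of its vehicle controls.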

[1] = endpoint: mean survival time, dose: 50.0 mg/kg/injection, schedule: Q01DX009 (ip), vehicle: saline
[2] = endpoint: mean survival time, dose: 100.0 mg/kg/injection, schedule: Q01DX009 (ip), vehicle: saline
[3] = endpoint: mean survival time, dose: 200.0 mg/kg/injection, schedule: Q01DX009 (ip), vehicle: saline
[4] = endpoint: mean survival time, dose: 100.0 mg/kg/injection, schedule: Q04DX002 (ip), vehicle: saline with Tween-80
[5] = endpoint: mean survival time, dose: 200.0 mg/kg/injection, schedule: Q04DX002 (ip), vehicle: saline with Tween-80
[6] = endpoint: mean survival time, dose: 400.0 mg/kg/injection, schedule: Q04DX002 (ip), vehicle: saline with Tween-80
[7] = endpoint: mean survival time, dose: 100.0 mg/kg/injection, schedule: Q01DX009 (ip), vehicle: saline with Tween-80
[8] = endpoint: mean survival time, dose: 100.0 mg/kg/injection, schedule: Q04DX003 (ip), vehicle: saline with Tween-80
[9] = endpoint: mean survival time, dose: 200.0 mg/kg/injection, schedule: Q01DX009 (ip), vehicle: saline with Tween-80
[10] = endpoint: mean survival time, dose: 200.0 mg/kg/injection, schedule: Q04DX003 (ip), vehicle: saline with Tween-80
[11] = endpoint: mean survival time, dose: 400.0 mg/kg/injection, schedule: Q01DX009 (ip), vehicle: saline with Tween-80
[12] = endpoint: mean survival time, dose: 400.0 mg/kg/injection, schedule: Q04DX003 (ip), vehicle: saline with Tween-80

Measured: T/C

NC1=NCN(C2OC(CO)C(O)C2O)C(=O)N1 (stereo not drawn)
inactive: endpoint: mean survival time, dose: 1.56 mg/kg/injection, schedule: Q01DX009 (ip), vehicle: saline 96 % of control | endpoint: mean survival time, dose: 3.12 mg/kg/injection, schedule: Q01DX009 (ip), vehicle: saline 113 % of control and 120 % of control and 93 % of control | endpoint: mean survival time, dose: 3.13 mg/kg/injection, schedule: Q01DX009 (ip), vehicle: saline 113 % of control | endpoint: mean survival time, dose: 6.25 mg/kg/injection, schedule: Q01DX009 (ip), vehicle: saline 96 % of control | endpoint: mean survival time, dose: 12.5 mg/kg/injection, schedule: Q01DX009 (ip), vehicle: saline 89 % of control | endpoint: mean survival time, dose: 25.0 mg/kg/injection, schedule: Q01DX009 (ip), vehicle: saline 90 % of control and 100 % of control | [1] 110 % of control | endpoint: mean survival time, dose: 50.0 mg/kg/injection, schedule: Q01DX009 (oral), vehicle: saline 96 % of control | [2] 95 % of control | endpoint: mean survival time, dose: 100.0 mg/kg/injection, schedule: Q01DX009 (oral), vehicle: saline 110 % of control | [3] 95 % of control | endpoint: mean survival time, dose: 200.0 mg/kg/injection, schedule: Q01DX009 (oral), vehicle: saline 119 % of control | endpoint: mean survival time, dose: 400.0 mg/kg/injection, schedule: Q01DX009 (ip), vehicle: saline 124 % of control | endpoint: mean survival time, dose: 600.0 mg/kg/injection, schedule: Q01DX009 (ip), vehicle: saline 100 % of control | endpoint: mean survival time, dose: 800.0 mg/kg/injection, schedule: Q01DX009 (oral), vehicle: saline 118 % of control | endpoint: median survival time, dose: 1.56 mg/kg/injection, schedule: Q01DX009 (ip), vehicle: saline 110 % of control | endpoint: median survival time, dose: 32.0 mg/kg/injection, schedule: Q03HX008 (ip), vehicle: saline 124 % of control | endpoint: median survival time, dose: 64.0 mg/kg/injection, schedule: Q01DX001 (oral), vehicle: saline 98 % of control | endpoint: median survival time, dose: 64.0 mg/kg/injection, schedule: Q01DX009 (oral), vehicle: saline 100 % of control | endpoint: median survival time, dose: 64.0 mg/kg/injection, schedule: Q03HX008 (ip), vehicle: saline 124 % of control | endpoint: median survival time, dose: 128.0 mg/kg/injection, schedule: Q03HX024 (oral), vehicle: saline 113 % of control | endpoint: median survival time, dose: 128.0 mg/kg/injection, schedule: Q04DX003 (oral), vehicle: saline 98 % of control | endpoint: median survival time, dose: 256.0 mg/kg/injection, schedule: Q01DX001 (ip), vehicle: saline 124 % of control | endpoint: median survival time, dose: 256.0 mg/kg/injection, schedule: Q01DX001 (oral), vehicle: saline 100 % of control | endpoint: median survival time, dose: 256.0 mg/kg/injection, schedule: Q03HX008 (oral), vehicle: saline 118 % of control | endpoint: median survival time, dose: 256.0 mg/kg/injection, schedule: Q04DX003 (oral), vehicle: saline 100 % of control | endpoint: median survival time, dose: 512.0 mg/kg/injection, schedule: Q03HX008 (oral), vehicle: saline 124 % of control | endpoint: median survival time, dose: 512.0 mg/kg/injection, schedule: Q04DX003 (oral), vehicle: saline 113 % of control | endpoint: median survival time, dose: 1024.0 mg/kg/injection, schedule: Q01DX001 (oral), vehicle: saline 124 % of control | endpoint: median survival time, dose: 1024.0 mg/kg/injection, schedule: Q01DX009 (ip), vehicle: saline 92 % of control and 98 % of control | endpoint: median survival time, dose: 1024.0 mg/kg/injection, schedule: Q01DX009 (sc), vehicle: saline 91 % of control

O=C(/C=C\c1ccccc1)c1ccc(Cl)cc1
inactive: endpoint: mean survival time, dose: 100.0 mg/kg/injection, schedule: Q01DX001 (ip), vehicle: other 90 % of control | endpoint: mean survival time, dose: 200.0 mg/kg/injection, schedule: Q01DX001 (ip), vehicle: other 92 % of control | endpoint: mean survival time, dose: 400.0 mg/kg/injection, schedule: Q01DX001 (ip), vehicle: other 88 % of control

COc1ccc(NC(=O)CCl)c(OC)c1
inactive: [4] 108 % of control | [5] 97 % of control | [6] 97 % of control

COC(=O)c1ccc(C=O)cc1
inactive: endpoint: mean survival time, dose: 100.0 mg/kg/injection, schedule: Q04DX003 (ip), vehicle: Klucel (hydroxypropylcellulose) (HPC) 87 % of control | endpoint: mean survival time, dose: 200.0 mg/kg/injection, schedule: Q04DX003 (ip), vehicle: Klucel (hydroxypropylcellulose) (HPC) 102 % of control | endpoint: mean survival time, dose: 400.0 mg/kg/injection, schedule: Q04DX003 (ip), vehicle: Klucel (hydroxypropylcellulose) (HPC) 94 % of control

COc1ccc(C(=S)c2ccc(OC)cc2)cc1
inactive: endpoint: mean survival time, dose: 100.0 mg/kg/injection, schedule: Q01DX001 (ip), vehicle: saline with Tween-80 101 % of control | endpoint: mean survival time, dose: 200.0 mg/kg/injection, schedule: Q01DX001 (ip), vehicle: saline with Tween-80 96 % of control | endpoint: mean survival time, dose: 400.0 mg/kg/injection, schedule: Q01DX001 (ip), vehicle: saline with Tween-80 101 % of control

CCCCCCCC/C=C\CCCCCCCC(=O)OCCCCCCCC
inactive: [4] 95 % of control | [5] 95 % of control | [6] 102 % of control

O=C(O)/C=C/C(=O)NCCc1c[nH]c2ccccc12
inactive: [7] 98 % of control | [8] 93 % of control | [9] 95 % of control | [10] 95 % of control | [11] 95 % of control | [12] 95 % of control

CCOC(=O)Nc1ccc(S(=O)(=O)O)cc1
inactive: endpoint: mean survival time, dose: 100.0 mg/kg/injection, schedule: Q01DX001 (ip), vehicle: saline 94 % of control | endpoint: mean survival time, dose: 200.0 mg/kg/injection, schedule: Q01DX001 (ip), vehicle: saline 105 % of control | endpoint: mean survival time, dose: 400.0 mg/kg/injection, schedule: Q01DX001 (ip), vehicle: saline 98 % of control

O=C(N/N=C\c1ccc([N+](=O)[O-])cc1)c1ccccc1
inactive: [8] 94 % of control | [10] 94 % of control | [12] 92 % of control

Cc1cc2c(ccc3c2ccc2cccc(C)c23)c2ccccc12
inactive: endpoint: mean survival time, dose: 75.0 mg/kg/injection, schedule: Q01DX001 (ip), vehicle: saline 95 % of control | endpoint: mean survival time, dose: 150.0 mg/kg/injection, schedule: Q01DX001 (ip), vehicle: saline 88 % of control | endpoint: mean survival time, dose: 300.0 mg/kg/injection, schedule: Q01DX001 (ip), vehicle: saline 94 % of control

CC(=O)C(C#N)c1c(C)cc(C)cc1C (stereo not drawn)
inactive: endpoint: mean survival time, dose: 37.5 mg/kg/injection, schedule: Q01DX009 (ip), vehicle: saline 96 % of control | endpoint: mean survival time, dose: 75.0 mg/kg/injection, schedule: Q01DX009 (ip), vehicle: saline 98 % of control | endpoint: mean survival time, dose: 150.0 mg/kg/injection, schedule: Q01DX009 (ip), vehicle: saline 96 % of control

COC(=O)c1ccc(C2CCC(OC(c3ccccc3)c3ccccc3)CC2)cc1 (stereo not drawn)
inactive: [10] 89 % of control | [12] 91 % of control

N=c1c2c(C(N)=O)cn(C3OC(CO)C(O)C3O)c2ncn1N (stereo not drawn)
inactive: endpoint: mean survival time, dose: 14.7 mg/kg/injection, schedule: Q01DX005 (ip), vehicle: water 110 % of control | endpoint: mean survival time, dose: 22.0 mg/kg/injection, schedule: Q01DX005 (ip), vehicle: water 118 % of control | endpoint: mean survival time, dose: 25.0 mg/kg/injection, schedule: Q01DX005 (ip), vehicle: water 117 % of control | endpoint: mean survival time, dose: 33.0 mg/kg/injection, schedule: Q01DX005 (ip), vehicle: water 121 % of control | endpoint: mean survival time, dose: 50.0 mg/kg/injection, schedule: Q01DX005 (ip), vehicle: water 120 % of control | endpoint: mean survival time, dose: 75.0 mg/kg/injection, schedule: Q01DX005 (ip), vehicle: water 106 % of control | endpoint: mean survival time, dose: 100.0 mg/kg/injection, schedule: Q01DX005 (ip), vehicle: water 98 % of control

CC(=O)Nc1ccc2c(c1)C(P(=O)(OC(C)C)OC(C)C)c1ccccc1-2 (stereo not drawn)
inactive: [8] 95 % of control | [10] 95 % of control | [12] 92 % of control

COc1ccccc1C1(O)c2ccccc2Sc2cccc(OC)c21 (stereo not drawn)
inactive: [7] 86 % of control | [9] 89 % of control | [11] 94 % of control

COCCCN=C(N)N
inactive: [1] 102 % of control | [2] 105 % of control | [3] 96 % of control

C=CN
inactive: endpoint: mean survival time, dose: 25.0 mg/kg/injection, schedule: Q04DX002 (ip), vehicle: saline with Tween-80 95 % of control | endpoint: mean survival time, dose: 50.0 mg/kg/injection, schedule: Q04DX002 (ip), vehicle: saline with Tween-80 106 % of control | [4] 98 % of control | [5] 98 % of control

O=c1[nH]c2cc3ccccc3cc2c(=O)o1
inactive: [8] 92 % of control | [10] 88 % of control | [12] 98 % of control

OCCN=Cc1ccc(OCc2ccccc2)c(OCc2ccccc2)c1
inactive: endpoint: median survival time, dose: 50.0 mg/kg/injection, schedule: Q04DX002 (ip), vehicle: saline with Tween-80 100 % of control | endpoint: median survival time, dose: 100.0 mg/kg/injection, schedule: Q04DX002 (ip), vehicle: saline with Tween-80 111 % of control | endpoint: median survival time, dose: 200.0 mg/kg/injection, schedule: Q04DX002 (ip), vehicle: saline with Tween-80 88 % of control | endpoint: median survival time, dose: 400.0 mg/kg/injection, schedule: Q04DX002 (ip), vehicle: saline with Tween-80 100 % of control
